From ChEMBL document CHEMBL1201862, “PubChem BioAssay data set” (2004)
Active and inactive are the calls of the source. Rule as the data show it, for most assays here: actives have a measured EC50 and inactives only a lower limit.

Assays:
[1] = microbe, parasite or virus in culture; format: functional; conditions: Mycobacterium tuberculosis
[2] = target: T1, Replicative DNA helicase DnaB (Mycobacterium tuberculosis, UniProt P9WMR3); experiment: DnaB intein splicing inhibitors, dose response, biochemical, cell-free fluorescence (AID 449749); format: functional
T1 sequence (P9WMR3 whole entry): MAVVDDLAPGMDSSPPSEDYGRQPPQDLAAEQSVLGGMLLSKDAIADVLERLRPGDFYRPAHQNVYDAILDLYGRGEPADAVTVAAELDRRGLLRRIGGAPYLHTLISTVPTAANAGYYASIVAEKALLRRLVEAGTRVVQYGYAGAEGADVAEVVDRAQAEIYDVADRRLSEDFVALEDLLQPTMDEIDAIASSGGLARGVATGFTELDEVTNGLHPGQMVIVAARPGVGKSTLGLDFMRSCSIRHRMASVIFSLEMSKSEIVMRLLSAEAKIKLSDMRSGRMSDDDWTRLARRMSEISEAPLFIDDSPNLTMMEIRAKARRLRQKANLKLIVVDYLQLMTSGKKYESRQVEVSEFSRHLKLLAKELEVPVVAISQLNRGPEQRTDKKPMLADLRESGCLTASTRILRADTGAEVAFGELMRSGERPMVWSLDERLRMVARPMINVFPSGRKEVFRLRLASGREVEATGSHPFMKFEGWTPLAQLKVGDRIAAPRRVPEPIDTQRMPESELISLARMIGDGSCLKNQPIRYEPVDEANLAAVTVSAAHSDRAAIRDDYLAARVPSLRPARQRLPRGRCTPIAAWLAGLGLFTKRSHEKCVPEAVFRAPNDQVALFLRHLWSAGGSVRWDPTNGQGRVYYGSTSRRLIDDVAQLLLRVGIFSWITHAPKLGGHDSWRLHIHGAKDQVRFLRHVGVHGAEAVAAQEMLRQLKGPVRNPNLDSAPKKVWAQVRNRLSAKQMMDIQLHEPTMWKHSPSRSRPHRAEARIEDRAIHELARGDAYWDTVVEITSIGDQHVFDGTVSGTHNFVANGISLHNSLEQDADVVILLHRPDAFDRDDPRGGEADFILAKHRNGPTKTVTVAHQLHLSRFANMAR

Protein RecA = target: T2, Protein RecA (Mycobacterium tuberculosis, UniProt P9WHJ3); experiment: Fluorescence Cell-Free Homogeneous Dose Retest to Identify Inhibitors of RecA-Intein Splicing Activity. [Related pubchem assays (depositor defined):AID2097, AID2223, AID489010, AID492950]; format: functional
T2 sequence (P9WHJ3 whole entry): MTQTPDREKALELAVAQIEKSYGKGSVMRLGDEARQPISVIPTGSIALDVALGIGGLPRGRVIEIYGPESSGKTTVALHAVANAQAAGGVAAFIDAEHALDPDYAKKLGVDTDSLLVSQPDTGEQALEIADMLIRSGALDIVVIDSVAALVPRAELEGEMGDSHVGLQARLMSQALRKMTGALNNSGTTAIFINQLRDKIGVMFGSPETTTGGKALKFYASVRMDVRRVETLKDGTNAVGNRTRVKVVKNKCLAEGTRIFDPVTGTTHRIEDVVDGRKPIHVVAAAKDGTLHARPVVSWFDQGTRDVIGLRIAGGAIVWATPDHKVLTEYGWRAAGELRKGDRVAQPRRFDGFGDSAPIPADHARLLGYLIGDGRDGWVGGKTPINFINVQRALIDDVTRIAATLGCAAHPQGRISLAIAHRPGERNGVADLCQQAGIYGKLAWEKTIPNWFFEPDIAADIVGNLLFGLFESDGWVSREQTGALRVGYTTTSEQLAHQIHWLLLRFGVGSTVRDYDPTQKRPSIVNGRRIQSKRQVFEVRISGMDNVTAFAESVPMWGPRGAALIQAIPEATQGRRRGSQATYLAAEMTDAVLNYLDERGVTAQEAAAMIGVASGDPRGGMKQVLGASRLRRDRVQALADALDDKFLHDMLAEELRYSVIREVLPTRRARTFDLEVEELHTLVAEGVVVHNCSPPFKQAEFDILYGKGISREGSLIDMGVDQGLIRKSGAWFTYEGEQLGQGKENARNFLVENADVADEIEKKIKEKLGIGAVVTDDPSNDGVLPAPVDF

[3] = Luminescence Cell-Based Dose Confirmation HTS to Identify Activators of 5'UTR Stem-Loop Driven Alpha-Synuclein mRNA Translation in H4 Neuroglioblastoma Cells. [Related pubchem assays: 1829 (Project Summary), 1814 (Primary HTS)]; format: functional
[4] = Luminescence Cell-Based Dose Response HTS to Identify Activators of Luciferase Translation or Activity in H4 […] Cells. [Related pubchem assays: 1829 (Project Summary), 1814 (Primary HTS)]; format: functional
H4 = experiment: Luminescence Cell-Based Dose Response HTS to Identify Activators of 5'UTR Stem-Loop Driven Prion Protein mRNA Translation in H4 Neuroglioblastoma Cells. [Related pubchem assays: 1829 (Project Summary), 1814 (Primary HTS)]; format: functional; conditions: Homo sapiens
BJ [5] = experiment: cytotoxicity toward BJ-TERT fibroblasts, dose response, cell-based, RAS-independent, luminescence (AID 1933); format: functional; conditions: Homo sapiens
BJ [6] = experiment: cells; format: functional, cell-based; conditions: Homo sapiens
BJ [7] = experiment: cytotoxicity toward BJ-TERT-LT-ST fibroblasts, dose response, cell-based, RAS-independent, luminescence (AID 1935); format: functional; conditions: Homo sapiens;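 also: BJ fibroblasts immortalized with TERT plus LT and ST oncogenes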
[8] = cytotoxicity toward DRD oncogenic fibroblasts, dose response, cell-based, non-viral oncogenic, luminescence (AID 1934); format: functional; conditions: Homo sapiens
[9] = Luminescence Cell-Based Dose Retest to Confirm Inhibitors of Cancer Stem Cells. [Related pubchem assays (depositor defined):AID2717, AID2721]; format: functional; conditions: Homo sapiens
[10] = NIH-3T3 fibroblast cytotoxicity, dose response, cytotoxicity control, cell-based, fluorescence, Alamar Blue, secondary assay (AID 2327); format: functional;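 also: NIH-3T3 mouse fibroblasts cultured with fluconazole at 8 µg/mL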
[11] = system: Streptococcus sp. 'group A'; experiment: growth inhibition of control SK(-) GAS strain, dose response, counter-screen for streptokinase expression inhibitor project, luminescence, kanamycin, BacTiterGlo, confirmation (AID 1900); format: functional, organism-based
Streptokinase A = target: T3, Streptokinase A (Streptococcus pyogenes serotype M1, UniProt P10520); experiment: S. pyogenes streptokinase expression inhibitors, potency, dose response, plasminogen activation absorbance, OD405 (AID 1914); format: functional, Streptococcus pyogenes M1 GAS;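 also: secreted streptokinase activity via plasminogen activation per viability signal from cell pellet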
T3 sequence (P10520 whole entry): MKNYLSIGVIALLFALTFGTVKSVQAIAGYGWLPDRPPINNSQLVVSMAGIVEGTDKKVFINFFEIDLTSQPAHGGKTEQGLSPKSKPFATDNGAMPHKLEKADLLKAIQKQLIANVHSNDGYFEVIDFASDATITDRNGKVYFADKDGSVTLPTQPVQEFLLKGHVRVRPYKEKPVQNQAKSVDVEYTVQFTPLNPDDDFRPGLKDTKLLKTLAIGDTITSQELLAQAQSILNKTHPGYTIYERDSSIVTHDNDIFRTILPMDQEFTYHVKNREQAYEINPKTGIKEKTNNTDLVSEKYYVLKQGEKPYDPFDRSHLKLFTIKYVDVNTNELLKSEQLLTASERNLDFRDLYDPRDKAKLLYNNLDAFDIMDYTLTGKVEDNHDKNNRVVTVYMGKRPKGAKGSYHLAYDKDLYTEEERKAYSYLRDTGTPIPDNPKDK

[12] = C. albicans growth with fluconazole, confirmation, fluorescence, retest (AID 2467); format: functional, cell-based
[13] = inhibitors of intracellular T. cruzi replication, confirmation, NIH3T3 host cells, beta-gal luminescence (AID 2044); format: functional, cell-based;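 also: intracellular parasites grown in NIH/3T3 mouse fibroblasts as host cells; luminescent beta-galactosidase reporter signal from transgenic T. cruzi replicating inside host cells; inhibitors lower the luminescence signal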
[14] = cytotoxicity toward NIH3T3 fibroblasts, dose response, counter-screen, cell-based, ATP luminescence, mouse fibroblasts (AID 2010); format: functional;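 also: cells exposed to compound for about 90 hours before reading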
Streptococcus = experiment: Group A Streptococcus viability loss, dose response, counter-screen for streptokinase expression inhibitor project, luminescence, BacTiterGlo (AID 1915); format: functional, organism-based;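 also: potency for reduction of bacterial viability or growth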

## O=C(Nc1ccc(Cl)cc1)N1CCN(c2ccc3nnc(-c4ccc(F)cc4)n3n2)CC1
[1]
  CC50: 19.3 µM (active)

## CCOC(=O)c1c(CC(C)C)csc1NC(=O)CCl
[1]
  CC50: > 40 µM (active)
[2]
  AC50: 9.8 µM (active)
Protein RecA
  EC50: 2.39 µM (active)

## CCOc1ccc(-c2nc(C)c(C(C)=O)n2O)cc1
[3]
  EC50: 14.1 µM (active)
[4]
  EC50: 9.13 µM (active)
H4
  EC50: 8.13 µM (active)

## COc1ccc(C2(c3ccc(OC)cc3)NC(=O)N(CC(=O)Nc3ccc(OC(F)F)cc3)C2=O)cc1
[1]
  CC50: 36.2 µM (active)

## CCC1=Nc2cc(C(=O)NCc3cccnc3)ccc2Sc2ccc(C)cc21
BJ [5]
  EC50: 4.48 µM (active)
BJ [6]
  EC50: 101 µM (active)
BJ [7]
  EC50: 16.6 µM (active)
[8]
  EC50: 3.06 µM (active)
[9]
  AC50: 0.493 µM (active)

## COc1ccc(-c2cc(C3CCN(Cc4cccc(C(F)(F)F)c4)CC3)[nH]n2)cc1
[10]
  EC50: > 160 µM (inactive)
[11]
  EC50: 25.1 µM (active)
Streptokinase A
  EC50: > 150 µM (not active)
[12]
  EC50: > 38 µM (not active)
[13]
  EC50: 0.626 µM (active)
[1]
  CC50: 35.5 µM (active)
[14]
  EC50: > 60 µM (not active)
Streptococcus
  EC50: > 150 µM (not active)

## Clc1ccc(SCc2cn3ccsc3n2)cc1
[3]
  EC50: 89.9 µM (active)
[4]
  EC50: 21 µM (active)
H4
  EC50: > 120 µM (not active)

## Cc1ccc(/C=C2\SC(=S)N(CCC(=O)N3CCCCC3)C2=O)cc1
BJ [5]
  EC50: > 150 µM (not active)
BJ [6]
  EC50: > 150 µM (inconclusive)
BJ [7]
  EC50: > 150 µM (not active)
[8]
  EC50: > 150 µM (not active)

## COc1cc2[nH]c3c(N4CCN(c5ccccn5)CC4)ncnc3c2cc1OC
[1]
  CC50: 11.1 µM (active)
